Source: patent US7294640B2, “Mitotic kinesin inhibitors” (Merck & Co., Inc., priority 2004, dated 2007)

Each compound was assayed against T1, GST-MCAK fusion protein (Homo sapiens, UniProt Q99661) (assay: MCAK ATPase in vitro assay). Conditions: GST-MCAK 100 nM, 1 mM sodium ATP, 2 μM microtubules, RT 50 min, 5% DMSO.
T1 construct: The GST-MCAK fusion protein was purchased Cytoskeleton (cat. #MK01); fused on or other part: GST tag (N-terminal, by the vendor's product)
Assay type: biochemical
Description: V. MCAK ATPase in Vitro Assay
Reagents: The GST-MCAK fusion protein was purchased Cytoskeleton (cat. #MK01). Tubulin from bovine brain was purchased from Cytoskeleton (HTS-grade), BSA from Sigma (cat. # 3059). chloramphenicol from Boehringer Mannheim (cat. # 634433), ampicillin from Fisher Biotech (cat. # BP1760-25) and Paclitaxel from Cytoskeleton (cat. # TXD01)
Microtubule preparation: For the preparation of microtubules, purified tubulin (>97% MAP-free) at 1 mg/ml was polymerized at 37° C. in the presence of 10 μM paclitaxel, 1 mM DTT, 1 mM GTP in BRB80 buffer (80 mM K-PIPES, 1 mM EGTA, 1 mM MgCl2 at pH 6.8). The resulting microtubules were separated from non-polymerized tubulin by ultracentrifugation and removal of the supernatant. The pellet, containing the microtubules, was gently resuspended in 1×BRB 80 containing 10 μM paclitaxel, 1 mM DTT, 50 μg/ml ampicillin, 5 μg/ml chloramphenicol in BRB80.
MCAK ATPase assay: GST-MCAK at 100 nM was incubated with 1 mM sodium ATP, 2 μM microtubules with 2 μM paclitaxel (concentration refers to tubulin dimers), and inhibitor at RT for 50 min in reaction buffer (80 mM K-PIPES, 1 mM K-EGTA, 2 mM MgCl2, 1 mM DTT, and 100 μg/ml BSA, pH 6.9). Compounds were dissolved in DMSO, and the final DMSO concentration in the reaction was 5%. The reaction was terminated with a 2-fold dilution of the reaction with 2× stop buffer (50 mM EDTA/1.8 M KCl). The free phosphate from the ATP hydrolysis reaction was measured via a quinaldine red/ammonium molybdate assay by adding 1.5 volumes of quench C within 24 hrs of addition of stop buffer. (Cogan, E. B., Birrell, G. B., Griffith, O. H. (1999) Analytical Biochemistry 271, p 29). Quench C was prepared by adding 1 volume of quench B (12.3 mM ammonium molybdate tetrahydrate in 1.15 M sulfuric acid) to 2 volumes of quench A (0.1 mg/ml quinaldine red, 0.14% polyvinyl alcohol). The plate was incubated for 5 min at room temperature, and the absorbance of the phosphomolybdate complex was measured at 540 nm.

T1 sequence (Q99661 258-588 limits assumed): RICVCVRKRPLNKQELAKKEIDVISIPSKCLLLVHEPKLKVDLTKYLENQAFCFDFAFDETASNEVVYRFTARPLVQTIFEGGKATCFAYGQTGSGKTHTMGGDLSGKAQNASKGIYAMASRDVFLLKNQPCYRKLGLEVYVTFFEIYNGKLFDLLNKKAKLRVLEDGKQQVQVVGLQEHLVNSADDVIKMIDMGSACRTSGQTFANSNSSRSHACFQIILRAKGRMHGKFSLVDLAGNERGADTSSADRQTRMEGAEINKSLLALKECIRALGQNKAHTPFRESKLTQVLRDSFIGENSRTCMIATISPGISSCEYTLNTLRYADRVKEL

**Q.** `CC(c1ccccc1)c1nc(-c2ccc([N+](=O)[O-])cc2)cs1` (centres unmarked) [Compound 1-5, 4-(4-nitrophenyl)-2-(1-phenylethyl)-1,3-thiazole] was tested. Which IC50 did it give?
**A.** Its IC50 is no more than 50 µM.

**Q.** How did the IC50 turn out when `c1ccc(C2(c3nc(-c4cccnc4)cs3)CC2)cc1` [Compound 1-10, 3-[2-(1-phenylcyclopropyl)-1,3-thiazol-4-yl]pyridine] was run?
**A.** The IC50 was no more than 50 µM.

**Q.** `N#Cc1ccc(-c2csc(C3(c4c(F)cccc4F)CC3)n2)cc1` [Compound 1-15, 4-{2-[1-(2,6-difluorophenyl)cyclopropyl]-1,3-thiazol-4-yl}benzonitrile] was tested. Which IC50 did it give?
**A.** Its IC50 is no more than 50 µM.

**Q.** `N#Cc1ccc(-c2csc(C3(c4ccccc4)CC3)n2)cn1` [Compound 2-2, 5-[2-(1-phenylcyclopropyl)-1,3-thiazol-4-yl]pyridine-2-carbonitrile] was tested. Which IC50 did it give?
**A.** The IC50 was no more than 50 µM.

**Q.** For `[O-][n+]1ccc(-c2csc(C3(c4ccccc4)CC3)n2)cc1` [Compound 2-3, 4-[2-(1-phenylcyclopropyl)-1,3-thiazol-4-yl]-1lambda~5~pyridin-1-ol], which IC50 is on record?
**A.** Its IC50 is no more than 50 µM.

**Q.** `Oc1ccc(-c2csc(C3(c4ccccc4)CC3)n2)cc1O` [Compound 3-2, 4-(3,4-dihydroxyphenyl)-2-(1-phenylcyclopropyl)-1,3-thiazole] was tested. Which IC50 did it give?
**A.** Its IC50 is no more than 50 µM.

**Q.** Which IC50 does the source give for `Oc1cnccc1-c1csc(C2(c3ccccc3)CC2)n1` [Compound 3-3, 4-[2-(1-phenylcyclopropyl)-1,3-thiazol-4-yl]pyridin-3-ol] here?
**A.** Its IC50 is no more than 50 µM.

**Q.** With `Oc1ccc(-c2csc(C3(c4ccccc4)CC3)n2)cc1` [Compound 3-4, 4-[2-(1-phenylcyclopropyl)-1,3-thiazol-4-yl]phenol] as the compound, how does the IC50 read?
**A.** The IC50 was no more than 50 µM.

**Q.** With `Oc1cccc(-c2csc(C3(c4ccccc4)CC3)n2)c1` [Compound 3-5, 3-[2-(1-phenylcyclopropyl)-1,3-thiazol-4-yl]phenol] as the compound, how does the IC50 read?
**A.** Its IC50 is no more than 50 µM.

**Q.** How did the IC50 turn out when `OCc1cccc(-c2csc(C3(c4ccccc4)CC3)n2)c1` [Compound 5-1, {3-[2-(1-phenylcyclopropyl)-1,3-thiazol-4-yl]phenyl}methanol] was run?
**A.** The IC50 was no more than 50 µM.

**Q.** `Clc1cccc(C2(c3nc(-c4ccncc4)cs3)CC2)c1` [Compound 9-10, 4-{2-[1-(3-chlorophenyl)cyclopropyl]-1,3-thiazol-4-yl}pyridine] was tested. Which IC50 did it give?
**A.** The IC50 was no more than 50 µM.

**Q.** `Fc1ccccc1C1(c2nc(-c3ccncc3)cs2)CC1` [Compound 9-11, 4-{2-[1-(2-fluorophenyl)cyclopropyl]-1,3-thiazol-4-yl}pyridine] was tested. Which IC50 did it give?
**A.** Its IC50 is no more than 50 µM.

**Q.** How did the IC50 turn out when `Clc1cc(-c2csc(C3(c4ccccc4)CC3)n2)ccn1` [Compound 9-13, 2-chloro-4-[2-(1-phenylcyclopropyl)-1,3-thiazol-4-yl]pyridine] was run?
**A.** The IC50 was no more than 50 µM.

**Q.** With `Cc1cccc(C2(c3nc(-c4ccncc4)cs3)CC2)c1` [Compound 9-14, 4-{2-[1-(3-methylphenyl)cyclopropyl]-1,3-thiazol-4-yl}pyridine] as the compound, how does the IC50 read?
**A.** Its IC50 is no more than 50 µM.
